Assay results: PubChem BioAssay AID342 (DTP/NCI, 2004)
Several values for one entry are separate records, joined by “and”; a condition that tells them apart may be missing. Identical values can stand only once.

Test system: Swiss mice, Sarcoma 180 sc, mean tumor weight T/C
Assay: NCI In Vivo Anticancer Drug Screen. Data for tumor model Sarcoma 180 (subcutaneous) in Swiss mice
Settings: endpoint: mean tumor weight, higher = larger tumour
In short: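 T/C ratio: treated over vehicle-treated controls, measuring survival or tumor size in transplanted-tumor mice.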

[1] = dose: 125.0 mg/kg/injection, schedule: Q01DX007 (ip), vehicle: carboxymethylcellulose (CMC)
[2] = dose: 50.0 mg/kg/injection, schedule: Q01DX007 (ip), vehicle: carboxymethylcellulose (CMC)
[3] = dose: 75.0 mg/kg/injection, schedule: Q01DX007 (ip), vehicle: saline

Q: For `CC(C)C(=O)OCC1OC(n2cnc3c(=S)nc[nH]c32)C(OC(=O)C(C)C)C1OC(=O)C(C)C` (stereo not drawn), which T/C (dose: 17.0 mg/kg/injection, schedule: Q01DX007 (ip), vehicle: steriod suspending solution) is on record?
A: 80 % of control

Q: What about the T/C (dose: 24.0 mg/kg/injection, schedule: Q01DX007 (ip), vehicle: carboxymethylcellulose (CMC)) of the same compound?
A: 76 % of control

Q: And the T/C (dose: 25.0 mg/kg/injection, schedule: Q01DX007 (ip), vehicle: steriod suspending solution)?
A: 61 % of control

Q: What about the T/C (dose: 37.0 mg/kg/injection, schedule: Q01DX007 (ip), vehicle: carboxymethylcellulose (CMC)) of the same compound?
A: 38 % of control

Q: And the T/C (dose: 37.0 mg/kg/injection, schedule: Q01DX007 (ip), vehicle: steriod suspending solution)?
A: 66 % of control

Q: And the T/C (dose: 55.0 mg/kg/injection, schedule: Q01DX007 (ip), vehicle: carboxymethylcellulose (CMC))?
A: 31 % of control and 47 % of control

Q: What about the T/C (dose: 55.0 mg/kg/injection, schedule: Q01DX007 (ip), vehicle: steriod suspending solution) of the same compound?
A: 27 % of control and 37 % of control

Q: What about the T/C (dose: 84.0 mg/kg/injection, schedule: Q01DX007 (ip), vehicle: carboxymethylcellulose (CMC)) of the same compound?
A: 25 % of control and 31 % of control

Q: What about the T/C (dose: 84.0 mg/kg/injection, schedule: Q01DX007 (ip), vehicle: steriod suspending solution) of the same compound?
A: 52 % of control

Q: And the T/C [1]?
A: 8 % of control

Q: And the T/C (dose: 125.0 mg/kg/injection, schedule: Q01DX007 (ip), vehicle: steriod suspending solution)?
A: 26 % of control

Q: And the T/C (dose: 188.0 mg/kg/injection, schedule: Q01DX007 (ip), vehicle: steriod suspending solution)?
A: 14 % of control and 17 % of control

Q: What about the T/C (dose: 282.0 mg/kg/injection, schedule: Q01DX007 (ip), vehicle: steriod suspending solution) of the same compound?
A: 16 % of control

Q: And the T/C (dose: 423.0 mg/kg/injection, schedule: Q01DX007 (ip), vehicle: steriod suspending solution)?
A: 16 % of control

Q: `C=C(C)C(=O)O[C@H]1CC2=C[C@@H](C[C@@]3(C)O[C@@H]3[C@H]3OC(=O)C(=C)[C@@H]31)OC2=O` was tested. Which T/C (dose: 2.5 mg/kg/injection, schedule: Q01DX007 (ip), vehicle: saline) did it give?
A: 105 % of control

Q: What about the T/C (dose: 5.0 mg/kg/injection, schedule: Q01DX007 (ip), vehicle: saline) of the same compound?
A: 106 % of control

Q: What about the T/C (dose: 10.0 mg/kg/injection, schedule: Q01DX007 (ip), vehicle: saline) of the same compound?
A: 100 % of control

Q: With `C[C@]12CCC(=O)C=C1[C@@H](F)C[C@@H]1[C@@H]2[C@@H](O)C[C@@]2(C)[C@H]1CC[C@]2(O)C(=O)CO` as the compound, how does the T/C (dose: 37.0 mg/kg/injection, schedule: Q01DX007 (sc), vehicle: steriod suspending solution) read?
A: 76 % of control

Q: And the T/C (dose: 56.0 mg/kg/injection, schedule: Q01DX007 (sc), vehicle: steriod suspending solution)?
A: 89 % of control

Q: What about the T/C (dose: 125.0 mg/kg/injection, schedule: Q01DX007 (sc), vehicle: steriod suspending solution) of the same compound?
A: 97 % of control

Q: And the T/C (dose: 126.0 mg/kg/injection, schedule: Q01DX007 (sc), vehicle: steriod suspending solution)?
A: 33 % of control

Q: And the T/C (dose: 188.0 mg/kg/injection, schedule: Q01DX007 (sc), vehicle: steriod suspending solution)?
A: 29 % of control

Q: What does the source list for `O=C(Nc1ccc(C2=NCCCN2)cc1)c1ccc(NC(=O)c2ccc(C3=NCCCN3)cc2)cc1`?
A: T/C (dose: 8.0 mg/kg/injection, schedule: Q01DX007 (ip), vehicle: carboxymethylcellulose (CMC)): 78 % of control; T/C (dose: 16.0 mg/kg/injection, schedule: Q01DX007 (ip), vehicle: carboxymethylcellulose (CMC)): 73 % of control

Q: With `CC1(C)OCC(C(OC(=O)c2ccccc2)C(OC2CCCCO2)C2COC(C)(C)O2)O1` (stereo not drawn) as the compound, how does the T/C (dose: 62.5 mg/kg/injection, schedule: Q01DX007 (ip), vehicle: carboxymethylcellulose (CMC)) read?
A: 90 % of control

Q: And the T/C [1]?
A: 86 % of control

Q: And the T/C (dose: 250.0 mg/kg/injection, schedule: Q01DX007 (ip), vehicle: carboxymethylcellulose (CMC))?
A: 100 % of control

Q: `O=C1N(Cl)C(=O)C(c2ccccc2)(c2ccc(F)cc2)N1Cl` (stereo not drawn) was tested. Which T/C (dose: 17.5 mg/kg/injection, schedule: Q#A X014 (ip), vehicle: methylcellulose (MC)) did it give?
A: 121 % of control

Q: What about the T/C (dose: 42.5 mg/kg/injection, schedule: Q#A X014 (ip), vehicle: methylcellulose (MC)) of the same compound?
A: 88 % of control

Q: And the T/C (dose: 62.5 mg/kg/injection, schedule: Q#A X014 (ip), vehicle: methylcellulose (MC))?
A: 75 % of control

Q: With `CN=C(N)c1ccc(N=C(N)c2ccc(C(N)=Nc3ccc(C(N)=NC)cc3)cc2)cc1` as the compound, how does the T/C (dose: 12.5 mg/kg/injection, schedule: Q01DX007 (ip), vehicle: carboxymethylcellulose (CMC)) read?
A: 124 % of control

Q: What about the T/C (dose: 25.0 mg/kg/injection, schedule: Q01DX007 (ip), vehicle: carboxymethylcellulose (CMC)) of the same compound?
A: 86 % of control

Q: And the T/C [2]?
A: 80 % of control

Q: With `Cn1cnc([N+](=O)[O-])c1Sc1nc(N)nc2nc[nH]c12` as the compound, how does the T/C (dose: 1.35 mg/kg/injection, schedule: Q#A X014 (ip), vehicle: methylcellulose (MC)) read?
A: 95 % of control

Q: What about the T/C (dose: 3.0 mg/kg/injection, schedule: Q#A X014 (ip), vehicle: methylcellulose (MC)) of the same compound?
A: 31 % of control

Q: And the T/C (dose: 5.0 mg/kg/injection, schedule: Q#A X014 (ip), vehicle: methylcellulose (MC))?
A: 27 % of control

Q: What about the T/C (dose: 5.15 mg/kg/injection, schedule: Q#A X014 (ip), vehicle: methylcellulose (MC)) of the same compound?
A: 29 % of control

Q: What about the T/C (dose: 7.5 mg/kg/injection, schedule: Q#A X014 (ip), vehicle: methylcellulose (MC)) of the same compound?
A: 22 % of control

Q: What about the T/C (dose: 7.75 mg/kg/injection, schedule: Q#A X014 (ip), vehicle: methylcellulose (MC)) of the same compound?
A: 29 % of control

Q: And the T/C (dose: 11.5 mg/kg/injection, schedule: Q#A X014 (ip), vehicle: methylcellulose (MC))?
A: 3 % of control

Q: Which T/C (dose: 37.5 mg/kg/injection, schedule: Q01DX007 (ip), vehicle: water) does the source give for `CC(=O)NNC(=O)c1ccccn1` here?
A: 112 % of control

Q: And the T/C (dose: 75.0 mg/kg/injection, schedule: Q01DX007 (ip), vehicle: water)?
A: 104 % of control

Q: What about the T/C (dose: 100.0 mg/kg/injection, schedule: Q01DX007 (ip), vehicle: water) of the same compound?
A: 89 % of control

Q: And the T/C (dose: 200.0 mg/kg/injection, schedule: Q01DX007 (ip), vehicle: water)?
A: 98 % of control

Q: `O=c1[nH]c(=O)c2n[nH]nc2[nH]1` was tested. Which T/C (dose: 0.25 mg/kg/injection, schedule: Q#A X014 (ip), vehicle: carboxymethylcellulose (CMC)) did it give?
A: 122 % of control

Q: And the T/C (dose: 0.5 mg/kg/injection, schedule: Q#A X014 (ip), vehicle: carboxymethylcellulose (CMC))?
A: 102 % of control

Q: And the T/C (dose: 2.0 mg/kg/injection, schedule: Q#A X014 (ip), vehicle: carboxymethylcellulose (CMC))?
A: 114 % of control

Q: What about the T/C (dose: 86.28 mg/kg/injection, schedule: Q01DX007 (ip), vehicle: carboxymethylcellulose (CMC)) of the same compound?
A: 68 % of control

Q: What about the T/C (dose: 172.57 mg/kg/injection, schedule: Q01DX007 (ip), vehicle: carboxymethylcellulose (CMC)) of the same compound?
A: 49 % of control

Q: What about the T/C (dose: 345.15 mg/kg/injection, schedule: Q01DX007 (ip), vehicle: carboxymethylcellulose (CMC)) of the same compound?
A: 102 % of control

Q: What about the T/C (dose: 690.3 mg/kg/injection, schedule: Q01DX007 (ip), vehicle: carboxymethylcellulose (CMC)) of the same compound?
A: 51 % of control

Q: Which results are given for `C/C=C1\CN(C)[C@H]2Cc3c([nH]c4ccccc34)[C@@H](c3cc4[nH]c5c(c4cc3OC)CCN3C[C@H]4C[C@H](CC)[C@H]3[C@@]5(C(=O)OC)C4)C[C@H]1C2C(=O)OC` (stereo partly drawn)?
A: T/C (dose: 35.0 mg/kg/injection, schedule: Q01DX007 (ip), vehicle: water): 58 % of control; T/C (dose: 50.0 mg/kg/injection, schedule: Q01DX007 (ip), vehicle: water): 74 % of control and 90 % of control; T/C (dose: 70.0 mg/kg/injection, schedule: Q01DX007 (ip), vehicle: water): 38 % of control and 59 % of control; T/C (dose: 90.0 mg/kg/injection, schedule: Q01DX007 (ip), vehicle: water): 30 % of control

Q: Which results are given for `O=C(Nc1ccc([N+](=O)[O-])cc1)Nc1ccc([N+](=O)[O-])cc1` (tested in a mixture with another compound)?
A: T/C (dose: 37.0 mg/kg/injection, schedule: Q#A X014 (ip), vehicle: methylcellulose (MC)): 59 % of control; T/C (dose: 55.5 mg/kg/injection, schedule: Q#A X014 (ip), vehicle: methylcellulose (MC)): 60 % of control; T/C (dose: 187.5 mg/kg/injection, schedule: Q#A X014 (ip), vehicle: methylcellulose (MC)): 53 % of control and 50 % of control and 52 % of control; T/C (dose: 250.0 mg/kg/injection, schedule: Q#A X014 (ip), vehicle: methylcellulose (MC)): 44 % of control

Q: Which results are given for `COC1N(C2CC(O)C(CO)O2)C(=O)NC(=O)C1(F)Br` (stereo not drawn)?
A: T/C (dose: 22.0 mg/kg/injection, schedule: Q01DX007 (ip), vehicle: saline): 85 % of control and 99 % of control; T/C [3]: 26 % of control and 43 % of control

Q: For `NN1CCCC1`, which T/C (dose: 33.0 mg/kg/injection, schedule: Q01DX007 (ip), vehicle: carboxymethylcellulose (CMC)) is on record?
A: 86 % of control

Q: And the T/C (dose: 33.0 mg/kg/injection, schedule: Q01DX007 (ip), vehicle: saline)?
A: 161 % of control

Q: What about the T/C [2] of the same compound?
A: 71 % of control

Q: And the T/C (dose: 50.0 mg/kg/injection, schedule: Q01DX007 (ip), vehicle: saline)?
A: 179 % of control

Q: What about the T/C (dose: 75.0 mg/kg/injection, schedule: Q01DX007 (ip), vehicle: carboxymethylcellulose (CMC)) of the same compound?
A: 20 % of control

Q: And the T/C [3]?
A: 86 % of control

Q: And the T/C (dose: 113.0 mg/kg/injection, schedule: Q01DX007 (ip), vehicle: saline)?
A: 70 % of control

Q: And the T/C (dose: 133.0 mg/kg/injection, schedule: Q01DX007 (ip), vehicle: saline)?
A: 55 % of control

Q: And the T/C (dose: 200.0 mg/kg/injection, schedule: Q01DX007 (ip), vehicle: saline)?
A: 36 % of control

Q: For `O=C(O)c1ccc(-c2ccccc2)cc1`, which T/C [2] is on record?
A: 95 % of control

Q: What about the T/C (dose: 100.0 mg/kg/injection, schedule: Q01DX007 (ip), vehicle: carboxymethylcellulose (CMC)) of the same compound?
A: 118 % of control

Q: And the T/C (dose: 200.0 mg/kg/injection, schedule: Q01DX007 (ip), vehicle: carboxymethylcellulose (CMC))?
A: 120 % of control
